According to US8084457B2, “Pharmaceutically active 4,6-disubstituted aminopyrimidine derivatives as modulators of protein kinases” (Lead Discovery Center GmbH, priority 2003, dated 2011):
Blank lines part the entries; values can stand above or below the compound they belong to.

Legend:
Type in all cases: biochemical
[1] = target: CDK1 (Homo sapiens, UniProt P06493); experiment: General kinase assay, selectivity panel: CDK1; conditions: 10 μM of compound, in comparison to DMSO (0% inhibition)
Experimental: (§1) The inhibitory effect of compounds according to the present invention on the activity of protein kinases, depicted in Table 1, can be measured according to the following protocol:
(§2) Pipettinq Sequence: • 1) Add 10 μl 4 fold concentrated Substrate+4 fold concentrated ATP in 3 fold concentrated Reaction Buffer to each well of Assay Plate • 2) Add 10 μl 4 fold concentrated inhibitor in 4% DMSO in H2O to each well except to C− and C+ wells • 3) Add 10 μl 4% DMSO in H2O to C− and C+ wells • 4) Add 10 μl 500 mM EDTA in H2O to − wells • 5) Add 10 μl 50 μCi/ml Adenosine 5′-[γ-^33P]triphosphate in H2O to each well • 6) Add 10 μl 4 fold concentrated kinase in Reaction Buffer to each well • 7) Incubate 1 hr at room temperature • 8) Add 10 μl 50 mM EDTA in H2O to each well except to C− wells • 9) Prepare MAPH plates by adding 200 μl 0.75% H3PO4 to each well • 10) Exhaust 0.75% H3PO4 using Millipore vacuum station • 11) Add 60 μl 0.75% H3PO4 to each well of MAPH Filter Plate • 12) Transfer 30 μl sample per well from Assay Plate to corresponding well of MAPH Filter Plate • 13) Incubate 30 min at room temperature • 14) Wash each well of MAPH Filter Plates 3× with 200 μl 0.75% H3PO4 using Millipore vacuum station. • 15) Add 20 μl Scintillation Liquid to each well of MAPH Filter Plate • 16) Seal MAPH Filter Plate • 17) Store MAPH Filter Plate 30 min in darkness • 18) Quantify radioactivity
(§3) The activity of these protein kinases is depicted as % inhibition in the presence of 10 μM of compound in comparison to DMSO (0% inhibition).

[2] = target: EGFR (Homo sapiens, UniProt P00533); experiment: General kinase assay, selectivity panel: EGFR; conditions: 10 μM of compound, in comparison to DMSO (0% inhibition)
Experimental: as §1, §2, §3

[3] = target: GSK-3β (Homo sapiens, UniProt P49841); experiment: General kinase assay, selectivity panel: GSK-3β; conditions: 10 μM of compound, in comparison to DMSO (0% inhibition)
Experimental: as §1, §2, §3

[4] = system: PDGFR; experiment: General kinase assay, selectivity panel: PDGFR; conditions: 10 μM of compound, in comparison to DMSO (0% inhibition)
Experimental: as §1, §2, §3

[5] = target: c-Kit (Homo sapiens, UniProt P10721); experiment: General kinase assay, selectivity panel: c-Kit; conditions: 10 μM of compound, in comparison to DMSO (0% inhibition)
Experimental: as §1, §2, §3

[6] = target: p56 Lck (Homo sapiens, UniProt P06239); experiment: General kinase assay, selectivity panel: p56 Lck; conditions: 10 μM of compound, in comparison to DMSO (0% inhibition)
Experimental: as §1, §2, §3

[7] = target: RSK1 (Homo sapiens, UniProt Q15418); experiment: General kinase assay, selectivity panel: RSK1; conditions: 10 μM of compound, in comparison to DMSO (0% inhibition)
Experimental: as §1, §2, §3

[8] = target: T1, CDK5/p35 (Homo sapiens, UniProt Q00535); experiment: Kinase assay determining CDK5/p35 activity (selectivity panel); conditions: 10 μM of compound, in comparison to DMSO (0% inhibition)
T1 construct: purchased Upsate (Upstate)
Experimental: Kinase Assays Determining CDK2/CyclinA and CDK5/p35 Activity:
Kinase assays were performed as described by the manufacturers recommendations (Proqinase for CDK2/CyclinA and Upsate for CDK5/p35).
as §3

[9] = target: Abl (Homo sapiens, UniProt P00519); experiment: General kinase assay, selectivity panel: Abl; conditions: 10 μM of compound, in comparison to DMSO (0% inhibition)
Experimental: as §1, §2, §3

[10] = target: CDK4 (Homo sapiens, UniProt P11802); experiment: CDK4 (activity range), Table 2; no method described
CDK4, sequence (P11802 whole entry, species assumed): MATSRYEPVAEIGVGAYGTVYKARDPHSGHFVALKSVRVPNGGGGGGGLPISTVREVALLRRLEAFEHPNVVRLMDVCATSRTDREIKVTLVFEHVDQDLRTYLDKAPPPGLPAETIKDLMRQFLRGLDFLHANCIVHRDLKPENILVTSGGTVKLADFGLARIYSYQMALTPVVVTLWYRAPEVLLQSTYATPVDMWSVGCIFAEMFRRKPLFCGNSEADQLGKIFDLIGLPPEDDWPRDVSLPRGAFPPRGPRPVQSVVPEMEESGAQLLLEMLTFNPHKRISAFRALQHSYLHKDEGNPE
CDK4, sequence (P24385 whole entry partner, species assumed): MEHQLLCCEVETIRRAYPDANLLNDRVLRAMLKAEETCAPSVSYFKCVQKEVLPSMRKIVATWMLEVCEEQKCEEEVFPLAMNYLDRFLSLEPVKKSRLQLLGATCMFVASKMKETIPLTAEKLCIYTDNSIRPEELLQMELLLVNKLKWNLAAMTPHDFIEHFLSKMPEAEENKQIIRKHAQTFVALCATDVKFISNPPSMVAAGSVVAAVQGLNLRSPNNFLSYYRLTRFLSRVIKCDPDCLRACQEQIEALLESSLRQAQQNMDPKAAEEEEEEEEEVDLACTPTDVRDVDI

CDK1, sequence (P06493 whole entry, species assumed): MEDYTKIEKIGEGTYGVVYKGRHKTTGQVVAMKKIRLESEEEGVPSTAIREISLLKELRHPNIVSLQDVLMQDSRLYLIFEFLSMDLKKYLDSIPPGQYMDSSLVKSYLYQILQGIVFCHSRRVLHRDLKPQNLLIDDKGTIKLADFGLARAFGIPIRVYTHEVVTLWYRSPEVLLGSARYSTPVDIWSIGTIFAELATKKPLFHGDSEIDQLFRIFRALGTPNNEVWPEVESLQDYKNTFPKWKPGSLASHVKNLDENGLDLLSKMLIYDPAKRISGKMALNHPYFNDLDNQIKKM
CDK1, sequence (P14635 whole entry partner, species assumed): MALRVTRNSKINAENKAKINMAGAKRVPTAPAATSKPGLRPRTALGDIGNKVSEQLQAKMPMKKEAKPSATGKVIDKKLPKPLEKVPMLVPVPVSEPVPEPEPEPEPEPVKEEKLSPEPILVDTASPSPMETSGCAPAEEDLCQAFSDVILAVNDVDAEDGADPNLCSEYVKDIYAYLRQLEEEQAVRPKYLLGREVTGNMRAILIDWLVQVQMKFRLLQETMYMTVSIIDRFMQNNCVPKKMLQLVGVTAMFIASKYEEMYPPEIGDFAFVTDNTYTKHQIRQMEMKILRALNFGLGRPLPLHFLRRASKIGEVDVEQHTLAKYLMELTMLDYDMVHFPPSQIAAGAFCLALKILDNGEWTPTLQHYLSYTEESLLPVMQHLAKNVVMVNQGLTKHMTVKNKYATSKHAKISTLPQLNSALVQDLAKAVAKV
T1 sequence (Q00535 whole entry): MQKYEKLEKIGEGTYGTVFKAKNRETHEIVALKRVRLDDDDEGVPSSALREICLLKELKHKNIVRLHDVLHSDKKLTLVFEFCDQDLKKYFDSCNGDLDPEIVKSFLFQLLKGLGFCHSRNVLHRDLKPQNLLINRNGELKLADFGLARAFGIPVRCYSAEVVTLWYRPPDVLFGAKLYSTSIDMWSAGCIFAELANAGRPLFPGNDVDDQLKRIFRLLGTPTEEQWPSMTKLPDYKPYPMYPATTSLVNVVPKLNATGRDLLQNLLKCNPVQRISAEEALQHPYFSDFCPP
T1 sequence (Q15078 whole entry partner): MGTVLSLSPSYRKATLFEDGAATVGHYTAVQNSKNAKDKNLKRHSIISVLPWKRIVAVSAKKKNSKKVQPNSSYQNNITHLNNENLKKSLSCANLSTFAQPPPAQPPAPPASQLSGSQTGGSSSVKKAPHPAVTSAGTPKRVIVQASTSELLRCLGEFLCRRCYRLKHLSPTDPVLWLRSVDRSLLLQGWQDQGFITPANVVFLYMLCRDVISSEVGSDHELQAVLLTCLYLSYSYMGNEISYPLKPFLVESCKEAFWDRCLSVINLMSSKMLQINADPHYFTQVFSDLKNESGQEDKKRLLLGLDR
EGFR, sequence (P00533 25-1210, species assumed): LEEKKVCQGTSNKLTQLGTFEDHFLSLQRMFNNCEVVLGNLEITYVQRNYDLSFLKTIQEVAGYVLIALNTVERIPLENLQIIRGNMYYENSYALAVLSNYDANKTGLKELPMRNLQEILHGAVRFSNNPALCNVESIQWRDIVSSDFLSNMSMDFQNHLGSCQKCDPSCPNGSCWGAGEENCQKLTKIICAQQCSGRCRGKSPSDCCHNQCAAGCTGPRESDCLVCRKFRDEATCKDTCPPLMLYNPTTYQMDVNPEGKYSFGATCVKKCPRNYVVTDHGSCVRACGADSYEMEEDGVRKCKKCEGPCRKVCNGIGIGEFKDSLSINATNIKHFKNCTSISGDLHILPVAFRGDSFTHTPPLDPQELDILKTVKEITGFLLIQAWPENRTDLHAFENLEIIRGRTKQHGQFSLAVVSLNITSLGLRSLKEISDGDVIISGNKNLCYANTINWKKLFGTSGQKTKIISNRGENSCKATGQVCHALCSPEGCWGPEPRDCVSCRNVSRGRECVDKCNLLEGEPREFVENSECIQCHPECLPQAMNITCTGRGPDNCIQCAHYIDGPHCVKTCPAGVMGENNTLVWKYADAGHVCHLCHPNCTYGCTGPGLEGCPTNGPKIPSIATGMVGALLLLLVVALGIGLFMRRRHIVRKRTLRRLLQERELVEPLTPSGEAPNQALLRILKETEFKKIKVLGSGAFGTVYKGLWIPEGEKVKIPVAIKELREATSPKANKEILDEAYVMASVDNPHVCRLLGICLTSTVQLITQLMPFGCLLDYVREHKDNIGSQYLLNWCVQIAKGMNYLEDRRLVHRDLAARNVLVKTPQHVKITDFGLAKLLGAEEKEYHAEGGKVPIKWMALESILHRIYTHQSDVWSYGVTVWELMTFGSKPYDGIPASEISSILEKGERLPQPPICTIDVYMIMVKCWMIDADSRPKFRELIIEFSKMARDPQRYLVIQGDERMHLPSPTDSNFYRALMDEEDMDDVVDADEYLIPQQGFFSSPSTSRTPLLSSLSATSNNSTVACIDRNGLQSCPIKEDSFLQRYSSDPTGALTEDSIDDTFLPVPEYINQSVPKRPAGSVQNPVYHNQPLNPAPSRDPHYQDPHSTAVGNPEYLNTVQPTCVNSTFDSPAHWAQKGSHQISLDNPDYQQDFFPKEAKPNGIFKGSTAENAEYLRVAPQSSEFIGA
Abl, sequence (P00519 whole entry, species assumed): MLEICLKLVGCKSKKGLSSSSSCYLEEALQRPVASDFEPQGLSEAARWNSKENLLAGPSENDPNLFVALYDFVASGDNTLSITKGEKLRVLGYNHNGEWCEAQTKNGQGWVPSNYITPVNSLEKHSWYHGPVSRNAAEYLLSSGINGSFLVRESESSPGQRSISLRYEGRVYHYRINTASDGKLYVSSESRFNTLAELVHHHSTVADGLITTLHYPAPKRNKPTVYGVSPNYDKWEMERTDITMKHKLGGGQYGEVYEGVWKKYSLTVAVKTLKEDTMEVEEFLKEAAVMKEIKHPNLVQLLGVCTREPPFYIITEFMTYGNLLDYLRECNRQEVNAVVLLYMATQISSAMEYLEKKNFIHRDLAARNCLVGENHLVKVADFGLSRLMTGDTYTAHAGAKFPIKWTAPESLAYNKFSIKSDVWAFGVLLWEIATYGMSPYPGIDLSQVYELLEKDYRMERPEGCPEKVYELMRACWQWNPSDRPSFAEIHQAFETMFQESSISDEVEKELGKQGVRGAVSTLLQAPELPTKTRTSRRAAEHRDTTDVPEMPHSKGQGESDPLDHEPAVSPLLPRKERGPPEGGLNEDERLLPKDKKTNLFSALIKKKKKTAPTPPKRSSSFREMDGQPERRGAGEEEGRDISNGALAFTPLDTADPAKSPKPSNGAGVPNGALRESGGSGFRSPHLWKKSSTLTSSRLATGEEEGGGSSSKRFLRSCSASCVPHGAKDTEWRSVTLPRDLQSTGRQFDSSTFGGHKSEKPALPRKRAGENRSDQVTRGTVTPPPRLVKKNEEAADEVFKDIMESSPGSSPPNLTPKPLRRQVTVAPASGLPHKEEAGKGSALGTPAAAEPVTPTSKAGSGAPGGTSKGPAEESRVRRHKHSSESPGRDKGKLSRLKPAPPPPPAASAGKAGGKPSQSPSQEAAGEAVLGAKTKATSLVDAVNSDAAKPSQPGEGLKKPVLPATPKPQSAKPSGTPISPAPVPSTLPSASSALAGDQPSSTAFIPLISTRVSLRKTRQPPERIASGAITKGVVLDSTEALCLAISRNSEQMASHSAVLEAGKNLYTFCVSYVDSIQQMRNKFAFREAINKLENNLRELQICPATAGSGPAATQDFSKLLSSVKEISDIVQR
GSK-3β, sequence (P49841 whole entry, species assumed): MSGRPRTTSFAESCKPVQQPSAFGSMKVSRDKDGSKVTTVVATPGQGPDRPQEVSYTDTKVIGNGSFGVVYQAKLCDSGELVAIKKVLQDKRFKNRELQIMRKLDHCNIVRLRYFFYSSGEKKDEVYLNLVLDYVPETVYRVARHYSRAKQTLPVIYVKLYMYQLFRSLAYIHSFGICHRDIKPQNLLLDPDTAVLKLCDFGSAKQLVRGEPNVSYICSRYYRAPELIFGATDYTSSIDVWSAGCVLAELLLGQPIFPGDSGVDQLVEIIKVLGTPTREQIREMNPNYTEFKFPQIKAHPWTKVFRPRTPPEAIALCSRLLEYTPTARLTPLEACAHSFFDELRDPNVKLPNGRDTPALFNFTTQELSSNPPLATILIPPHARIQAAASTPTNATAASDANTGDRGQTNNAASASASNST

SMILES: COc1ccccc1-c1cc(Nc2ccc(NS(C)(=O)=O)cc2)ncn1 [Compound 33]
- CDK1 (% inhibition) [1]: a (inhibition greater than 80%: a)
- EGFR (% inhibition) [2]: b (inhibition between 80 and 50%: b)
- GSK-3β (% inhibition) [3]: b (inhibition between 80 and 50%: b)
- PDGFR (% inhibition) [4]: b (inhibition between 80 and 50%: b)
- c-Kit (% inhibition) [5]: b (inhibition between 80 and 50%: b)
- p56 Lck (% inhibition) [6]: b (inhibition between 80 and 50%: b)
- RSK1 (% inhibition) [7]: c (inhibition between 50 and 30%: c)

SMILES: COc1ccccc1-c1cc(Nc2ccc(NC(=O)[C@@H](N)c3ccccc3)cc2)ncn1 [Compound 81]
- CDK5 (% inhibition) [8]: a (inhibition greater than 80%: a)
- Abl (% inhibition) [9]: b (inhibition between 80 and 50%: b)
- CDK1 (% inhibition) [1]: a (inhibition greater than 80%: a)
- EGFR (% inhibition) [2]: b (inhibition between 80 and 50%: b)
- GSK-3β (% inhibition) [3]: b (inhibition between 80 and 50%: b)
- PDGFR (% inhibition) [4]: b (inhibition between 80 and 50%: b)

SMILES: CN[C@H](C(=O)Nc1ccc(Nc2cc(-c3ccccc3OC)ncn2)cc1)c1ccccc1 [Compound 82]
- CDK5 (% inhibition) [8]: b (inhibition between 80 and 50%: b)
- Abl (% inhibition) [9]: c (inhibition between 50 and 30%: c)
- CDK1 (% inhibition) [1]: b (inhibition between 80 and 50%: b)
- EGFR (% inhibition) [2]: a (inhibition greater than 80%: a)
- GSK-3β (% inhibition) [3]: c (inhibition between 50 and 30%: c)
- PDGFR (% inhibition) [4]: c (inhibition between 50 and 30%: c)

SMILES: Cc1ccc(Nc2cc(-c3cccc(N)c3)ncn2)cc1NS(=O)(=O)c1ccccc1 [Compound 109]
- CDK5 (% inhibition) [8]: a (inhibition greater than 80%: a)
- CDK1 (% inhibition) [1]: a (inhibition greater than 80%: a)
- EGFR (% inhibition) [2]: b (inhibition between 80 and 50%: b)
- GSK-3β (% inhibition) [3]: a (inhibition greater than 80%: a)
- PDGFR (% inhibition) [4]: c (inhibition between 50 and 30%: c)

SMILES: CNC(C)(C)C(=O)Nc1ccc(Nc2cc(-c3ccccc3OC)ncn2)cc1 [Compound 118]
- CDK5 (% inhibition) [8]: b (inhibition between 80 and 50%: b)
- Abl (% inhibition) [9]: c (inhibition between 50 and 30%: c)
- CDK1 (% inhibition) [1]: b (inhibition between 80 and 50%: b)
- EGFR (% inhibition) [2]: a (inhibition greater than 80%: a)
- PDGFR (% inhibition) [4]: b (inhibition between 80 and 50%: b)

SMILES: N[C@@H]1CCCC[C@H]1NC(=O)c1ccc(Nc2cc(-c3ccccc3O)ncn2)cc1 [Compound 218]
- IC50 [10]: 1 to 10 µM

SMILES: COc1ncccc1-c1cc(Nc2ccc(C(=O)N[C@@H]3CCCC[C@H]3N)cc2)ncn1 [Compound 219]
- IC50 [10]: 10 to 250 µM

SMILES: CSc1ccncc1-c1cc(Nc2ccc(C(=O)N[C@@H]3CCCC[C@H]3N)cc2)ncn1 [Compound 224]
- IC50 [10]: 1 to 10 µM

SMILES: CN(C)c1ccccc1-c1cc(Nc2ccc(C(=O)N[C@@H]3CCCC[C@H]3N)cc2)ncn1 [Compound 233]
- IC50 [10]: 1 to 10 µM

SMILES: COc1ccccc1-c1cc(Nc2ccc(N3CCOCC3)cc2)ncn1 [Compound 280]
- IC50 [10]: 1 to 10 µM

SMILES: O=C(O)Cc1ccc(Nc2cc(-c3ccccc3OCc3ccccc3)ncn2)cc1 [Compound 294]
- IC50 [10]: 1 to 10 µM

SMILES: COc1ccccc1-c1cc(Nc2cccc(S(N)(=O)=O)c2)ncn1 [Compound 331]
- IC50 [10]: 10 to 250 µM

Other lines, results leading:

- IC50 [10]: 1 to 10 µM
SMILES: CNS(=O)(=O)c1ccc(Nc2cc(-c3ccccc3OC)ncn2)cc1 [Compound 341]

- IC50 [10]: 10 to 250 µM
SMILES: COc1ccccc1-c1cc(Nc2ccc3c(c2)S(=O)(=O)C=C3)ncn1 [Compound 342]

- IC50 [10]: 1 to 10 µM
SMILES: COc1cccc(F)c1-c1cc(Nc2cccc(S(C)(=O)=O)c2)ncn1 [Compound 346]

- IC50 [10]: 1 to 10 µM
SMILES: COc1ccccc1-c1cc(Nc2ccc(CCO)cc2)ncn1 [Compound 351]

- IC50 [10]: 1 to 10 µM
SMILES: COc1ccccc1-c1cc(Nc2ccc3cnn(C)c3c2)ncn1 [Compound 353]
